Experiments:
[1] = system: MIA PaCa-2; assay: Antiproliferative activity against human MIAPaCa2 cells after 72 hrs by MTT assay; type: functional, cell-based
[2] = system: HCT-116; assay: Antiproliferative activity against human HCT116 cells over-expressing DHODH after 72 hrs by MTT assay; type: functional, cell-based
[3] = target: Dihydroorotate dehydrogenase (quinone), mitochondrial (Homo sapiens, UniProt Q02127)
Description: Inhibition of DHODH (unknown origin) expressed in Escherichia coli Rosetta2(DE3) assessed as reduction of DCIP using dihydroorotate as substrate preincubated for 30 mins followed by substrate addition in presence of CoQ10 measured after 1 hr

[4] = system: HL-60; assay: Antiproliferative activity against human HL60 cells after 72 hrs by MTT assay
[5] = Thermodynamic aqueous solubility of the compound in pH 7.4 phosphate buffer at 6.7 mg/ml after overnight incubation by CLND method; type: physicochemical
[6] = Thermodynamic aqueous solubility of the compound in pH 7.4 phosphate buffer at 8.7 mg/ml after overnight incubation by CLND method; type: physicochemical
[7] = Elimination half life in CD-1 mouse at 20 mg/kg, po; type: ADME, organism-based; details: in vivo, read-out: beta t1/2 (converted)
[8] = Apparent clearance in CD-1 mouse at 20 mg/kg, po; type: ADME, organism-based; details: in vivo
[9] = Clearance in CD-1 mouse at 10 mg/kg, iv; type: ADME, organism-based; details: in vivo
[10] = AUC (0 to last) in CD-1 mouse at 10 mg/kg, iv; type: ADME, organism-based; set-up: dose 10 mg/kg, time 0 - last, route intravenous; details: in vivo
[11] = Volume of distribution at steady state in CD-1 mouse at 10 mg/kg, iv; type: ADME, organism-based; details: in vivo, read-out: Vdss
[12] = Thermodynamic aqueous solubility of the compound in pH 7.4 phosphate buffer at 5.8 mg/ml after overnight incubation by CLND method; type: physicochemical
[13] = AUC (0 to infinity) in CD-1 mouse at 10 mg/kg, iv; type: ADME, organism-based; set-up: dose 10 mg/kg, time infinity, route intravenous; details: in vivo
[14] = Apparent volume of distribution during terminal phase in CD-1 mouse at 20 mg/kg, po; type: ADME, organism-based; details: in vivo, read-out: Vz/F
[15] = Initial plasma concentration in CD-1 mouse at 10 mg/kg, iv; type: ADME, organism-based
[16] = Elimination half life in CD-1 mouse at 10 mg/kg, iv; type: ADME, organism-based; details: in vivo, read-out: beta t1/2 (converted)
[17] = Thermodynamic aqueous solubility of the compound in pH 7.4 phosphate buffer at 4.9 mg/ml after overnight incubation by CLND method; type: physicochemical
[18] = AUC (0 to last) in CD-1 mouse at 20 mg/kg, po; type: ADME, organism-based; set-up: dose 20 mg/kg, route oral, time 0 - last; details: in vivo
[19] = Tmax in CD-1 mouse at 20 mg/kg, po; type: ADME, organism-based; details: in vivo
[20] = AUC (0 to infinity) in CD-1 mouse at 20 mg/kg, po; type: ADME, organism-based; set-up: dose 20 mg/kg, time infinity, route oral; details: in vivo
[21] = Cmax in CD-1 mouse at 20 mg/kg, po; type: ADME, organism-based; set-up: dose 20 mg/kg, route oral; details: in vivo
[22] = system: Mus musculus; assay: Oral bioavailability in CD-1 mouse at 20 mg/kg; type: ADME, organism-based; details: in vivo
[23] = Thermodynamic aqueous solubility of the compound in pH 7.4 phosphate buffer at 6.2 mg/ml after overnight incubation by CLND method; type: physicochemical
[24] = Cmax in human at 8 mg/m2 administered as 10 mins iv infusion; type: ADME, organism-based; set-up: route intravenous; details: in vivo
[25] = Elimination half life in human at 16 mg/m2 administered as 10 mins iv infusion; type: ADME, organism-based; details: in vivo, read-out: beta t1/2 (converted)
[26] = system: Homo sapiens; assay: Clearance in human at 16 mg/m2 administered as 10 mins iv infusion; type: ADME, organism-based; details: in vivo
[27] = Solubility of the compound in water at pH 7.4; type: physicochemical
[28] = AUC (0 to last) in human at 16 mg/m2 administered as 10 mins iv infusion; type: ADME, organism-based; set-up: route intravenous, time 0 - last; details: in vivo
[29] = Cmax in human at 16 mg/m2 administered as 10 mins iv infusion; type: ADME, organism-based; set-up: route intravenous; details: in vivo
[30] = system: HCT-116; assay: Growth inhibition of human HCT116 cells over-expressing DHODH at 2 times antiproliferative IC50 after 72 hrs in presence of 5 uM uridine by MTT assay; type: functional
[31] = system: Homo sapiens; assay: Volume of distribution at steady state in human at 36 mg/m2, iv; type: ADME, organism-based; details: in vivo
[32] = system: Homo sapiens; assay: Volume of distribution at steady state in human at 8 mg/m2 administered as 10 mins iv infusion; type: ADME, organism-based; details: in vivo
[33] = AUC (0 to last) in human at 8 mg/m2 administered as 10 mins iv infusion; type: ADME, organism-based; set-up: time 0 - last, route intravenous; details: in vivo
[34] = Elimination half life in human at 36 mg/m2, iv; type: ADME, organism-based; details: in vivo, read-out: beta t1/2 (converted)
[35] = system: Homo sapiens; assay: Clearance in human at 8 mg/m2 administered as 10 mins iv infusion; type: ADME, organism-based; details: in vivo
[36] = Elimination half life in human at 8 mg/m2 administered as 10 mins iv infusion; type: ADME, organism-based; details: in vivo, read-out: beta t1/2 (converted)
[37] = system: Homo sapiens; assay: Volume of distribution at steady state in human at 16 mg/m2 administered as 10 mins iv infusion; type: ADME, organism-based; details: in vivo
[38] = AUC (0 to last) in human at 36 mg/m2, iv; type: ADME, organism-based; set-up: route intravenous, time 0 - last; details: in vivo
[39] = Thermodynamic aqueous solubility of the compound in pH 7.4 phosphate buffer at 6.4 mg/ml after overnight incubation by CLND method; type: physicochemical

Sequence of Dihydroorotate dehydrogenase (quinone), mitochondrial (Q02127 whole entry): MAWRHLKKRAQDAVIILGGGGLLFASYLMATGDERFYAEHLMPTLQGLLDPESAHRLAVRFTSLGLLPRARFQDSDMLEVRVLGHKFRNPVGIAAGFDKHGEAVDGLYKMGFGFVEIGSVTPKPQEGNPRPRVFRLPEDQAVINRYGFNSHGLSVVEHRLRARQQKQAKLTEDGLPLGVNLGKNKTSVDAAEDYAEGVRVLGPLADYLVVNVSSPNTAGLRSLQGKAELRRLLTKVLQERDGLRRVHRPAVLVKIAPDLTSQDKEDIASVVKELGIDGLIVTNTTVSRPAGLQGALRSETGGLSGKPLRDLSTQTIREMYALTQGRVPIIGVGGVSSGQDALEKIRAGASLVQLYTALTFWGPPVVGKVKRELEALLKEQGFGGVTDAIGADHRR

`O=C(O)c1cc(-c2ccc(-c3cncnc3)cc2)nc2ccccc12` gave an IC50 [1] greater than 50 µM, an IC50 [2] greater than 50 µM and an IC50 [3] greater than 200 µM.

Work on `Cc1ccc(-c2ccc(-c3nc4cnccc4c(C(=O)O)c3C)cc2)c(Cl)n1` yielded an IC50 [1] greater than 100 µM, an IC50 [2] greater than 100 µM and an IC50 [3] of 5.26 µM.

In the case of `O=C(O)c1cc(-c2ccc(-c3cccnc3C(F)(F)F)cc2)nc2ccccc12`, the IC50 [1] is reported as 8.84 µM and the IC50 [2] is reported as 4.63 µM.

In the case of `Cc1c(-c2ccc(-c3ccccc3)cc2)nc2cnc(C(F)(F)F)cc2c1C(=O)O`, the IC50 [1] is reported as 2.18 µM, the IC50 [2] is reported as 0.88 µM and the IC50 [4] is reported as 2.67 µM. For the same compound, the IC50 [3] was 0.0212 µM.

`Cc1ccncc1-c1ccc(-c2cc(C(=O)O)c3ccccc3n2)cc1` gave an IC50 [1] of 17.9 µM and an IC50 [2] of 10.8 µM.

With `O=C(O)c1cc(-c2ccc(-c3cnccc3C(F)(F)F)cc2)nc2ccccc12` the IC50 [1] was 8.71 µM and the IC50 [2] was 3.87 µM.

Compound `Cc1c(-c2ccc(-c3ccccc3)cc2)nc2cnccc2c1C(=O)O` has an IC50 [1] of 4.5 µM, an IC50 [2] of 6.3 µM and an IC50 [4] of 7.08 µM. It also gave an IC50 [3] of 0.0283 µM, a Therm_solubility [5] of 2628.4 µM and a Therm_solubility [6] of 3096.3 µM.

For `Cc1c(-c2ccc(-c3ccccc3F)cc2)nc2cnc(C(F)(F)F)cc2c1C(=O)O`, the IC50 [1] was 0.454 µM, the IC50 [2] was 0.333 µM and the IC50 [4] was 0.401 µM. It also gave an IC50 [3] of 0.0118 µM.

Compound `Cc1c(-c2ccc(-c3cccnc3Cl)cc2)nc2cnccc2c1C(=O)O` has an IC50 [1] greater than 100 µM, an IC50 [2] greater than 100 µM and an IC50 [3] of 0.259 µM.

For `Cc1ccc(-c2ccc(-c3nc4ccc(Cl)cc4c(C(=O)O)c3C)cc2)c(Cl)n1`, the IC50 [1] was 7.56 µM and the IC50 [2] was 2.71 µM.

In the case of `O=C(O)c1cc(-c2ccc(-c3ncccn3)cc2)nc2ccccc12`, the IC50 [1] is reported as greater than 50 µM, the IC50 [2] is reported as greater than 50 µM and the IC50 [3] is reported as greater than 200 µM.

For `COC(=O)c1cc(-c2ccc(N3CCCCC3)cc2)nc2ccccc12`, the IC50 [1] was 31.8 µM, the IC50 [2] was 38.2 µM and the IC50 [3] was greater than 200 µM.

In the case of `Cc1c(-c2ccc(-c3ccccc3)cc2)nc2ccncc2c1C(=O)O`, the IC50 [1] is reported as 28.1 µM, the IC50 [2] is reported as 26.7 µM and the IC50 [3] is reported as 2.79 µM.

With `Cc1c(-c2ccc(-c3ccccc3)cc2)nc2ncccc2c1C(=O)O` the IC50 [1] was greater than 100 µM, the IC50 [2] was greater than 100 µM and the IC50 [3] was 1.22 µM.

With `COc1ncccc1-c1ccc(-c2cc(C(=O)O)c3ccccc3n2)cc1` the IC50 [1] was 13.6 µM.

Compound `Cc1c(-c2ccc(-c3cccnc3Cl)cc2)nc2cnc(C(F)(F)F)cc2c1C(=O)O` has an IC50 [1] of 21.5 µM, an IC50 [2] of 25.7 µM and an IC50 [3] of 0.201 µM.

In the case of `Cc1c(-c2ccc(-c3cccnc3Cl)cc2)nc2ccc(F)cc2c1C(=O)O`, the half-life [7] is reported as 2.78 h, the CL/F [8] is reported as 9.25 mL/min/kg and the clearance [9] is reported as 5.15 mL/min/kg. It also gave an AUC(0-t) [10] of 32300 ng·h/mL, a Vd [11] of 0.496 L/kg and an IC50 [1] of 7.18 µM. For the same compound, the IC50 [2] was 3.02 µM, the IC50 [4] was 9.28 µM and the Therm_solubility [12] was 1000.1 µM. It also gave an AUC(0-inf) [13] of 32300 ng·h/mL, a Vd/F [14] of 2.23 L/kg and a C0 [15] of 45400 ng/mL. For the same compound, the half-life [16] was 2.73 h, the Therm_solubility [17] was 982.1 µM and the AUC(0-t) [18] was 35900 ng·h/mL. For the same compound, the Tmax [19] was 0.25 h, the AUC(0-inf) [20] was 36000 ng·h/mL and the Cmax [21] was 5310 ng/mL. For the same compound, the F [22] was 56%.

`COC(=O)c1cc(-c2ccc(C3CCCCC3)cc2)nc2ccccc12` showed an IC50 [1] of 37.1 µM, an IC50 [2] of 42.6 µM and an IC50 [3] greater than 200 µM.

For `COC(=O)c1cc(-c2ccc(-c3cccnc3)cc2)nc2ccccc12`, the IC50 [1] was 6.43 µM, the IC50 [2] was 6.15 µM and the IC50 [3] was greater than 200 µM.

For `Cc1c(-c2ccc(-c3cccnc3F)cc2)nc2ccc(F)cc2c1C(=O)O`, the IC50 [1] was 23.6 µM and the IC50 [2] was 5.71 µM.

For `Cc1ccc(-c2ccc(-c3nc4ccc(F)cc4c(C(=O)O)c3C)cc2)c(Cl)n1`, the IC50 [1] was 6.57 µM, the IC50 [2] was 1.98 µM and the IC50 [4] was 4.81 µM.

In the case of `CC(C)c1ccc(-c2cc(C(=O)O)c3ccccc3n2)cc1`, the IC50 [1] is reported as 24.2 µM and the IC50 [2] is reported as 19.1 µM.

Work on `COc1ccccc1-c1ccc(-c2cc(C(=O)O)c3ccccc3n2)cc1` yielded an IC50 [1] of 7.45 µM and an IC50 [2] of 2.85 µM.

In the case of `Cc1c(-c2ccc(-c3ccccc3F)cc2)nc2ccc(F)cc2c1C(=O)O` [BREQUINAR], the Therm_solubility [23] is reported as 1085.2 µM, the Cmax [24] is reported as 1800 ng/mL and the half-life [25] is reported as 3.1 h. It also gave an IC50 [1] of 1.69 µM, a CL [26] of 4.9 L/hr/m2 and a solubility [27] of less than 100 µg/mL. For the same compound, the IC50 [2] was 0.679 µM, the AUC(0-t) at 10 min [28] was 3800 ng·h/mL and the IC50 [4] was 0.544 µM. The Cmax [29] was 2700 ng/mL, the “growth inhibition (GI)” value [30] was less than 50% and the Vdss [31] was 7.48 L/m2. For the same compound, the Vdss [32] was 8.2 L/m2, the AUC(0-t) at 10 min [33] was 3200 ng·h/mL and the half-life [34] was 4.3 h. For the same compound, the CL [35] was 3.2 L/hr/m2, the half-life [36] was 2.9 h and the Vdss [37] was 11.6 L/m2. It also gave an AUC(0-t) [38] of 20700 ng·h/mL and a Therm_solubility [39] of 1048.6 µM.

Compound `O=C(O)c1cc(-c2ccccc2)nc2ccccc12` [CINCHOPHEN] has an IC50 [1] greater than 100 µM, an IC50 [2] greater than 100 µM and an IC50 [3] of 144 µM.

— ChEMBL document CHEMBL4219256, “Design, Synthesis, and Biological Evaluation of 4-Quinoline Carboxylic Acids as Inhibitors of Dihydroorotate Dehydrogenase” (J Med Chem, 2018)
